Results: ChEMBL document CHEMBL1140596, “Pharmacophore identification of KSP inhibitors” (Bioorg Med Chem Lett, 2007)

target: T1, Kinesin-like protein KIF11 (Homo sapiens, UniProt P52732); experiment: Inhibition of KSP
T1 sequence (P52732 whole entry): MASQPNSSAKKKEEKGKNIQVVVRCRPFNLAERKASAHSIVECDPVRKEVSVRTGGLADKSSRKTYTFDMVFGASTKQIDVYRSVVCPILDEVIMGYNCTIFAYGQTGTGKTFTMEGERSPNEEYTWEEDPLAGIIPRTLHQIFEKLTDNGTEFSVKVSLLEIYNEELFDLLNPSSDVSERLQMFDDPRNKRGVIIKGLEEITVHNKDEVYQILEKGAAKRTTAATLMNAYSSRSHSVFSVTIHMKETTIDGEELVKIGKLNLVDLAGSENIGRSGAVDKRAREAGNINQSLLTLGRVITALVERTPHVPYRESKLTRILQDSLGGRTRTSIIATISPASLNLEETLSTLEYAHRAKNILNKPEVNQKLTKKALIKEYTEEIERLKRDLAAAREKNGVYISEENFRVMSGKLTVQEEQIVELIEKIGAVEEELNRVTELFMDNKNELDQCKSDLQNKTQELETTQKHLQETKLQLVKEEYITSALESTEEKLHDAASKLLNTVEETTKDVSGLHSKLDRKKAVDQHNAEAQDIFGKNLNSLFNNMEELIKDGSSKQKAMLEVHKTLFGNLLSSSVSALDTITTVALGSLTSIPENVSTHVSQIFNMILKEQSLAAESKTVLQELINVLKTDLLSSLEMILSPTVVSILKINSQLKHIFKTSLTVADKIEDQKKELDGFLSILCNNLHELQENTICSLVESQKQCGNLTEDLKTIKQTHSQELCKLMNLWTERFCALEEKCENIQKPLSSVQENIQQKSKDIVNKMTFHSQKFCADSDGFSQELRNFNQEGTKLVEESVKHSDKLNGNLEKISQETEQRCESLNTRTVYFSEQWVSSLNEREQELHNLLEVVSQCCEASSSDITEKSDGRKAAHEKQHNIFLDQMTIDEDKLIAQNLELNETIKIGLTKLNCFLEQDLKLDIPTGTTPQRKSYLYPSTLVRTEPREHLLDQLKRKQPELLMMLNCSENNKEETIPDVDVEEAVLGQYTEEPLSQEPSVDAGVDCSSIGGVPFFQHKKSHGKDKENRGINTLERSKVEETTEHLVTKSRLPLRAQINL

Row | SMILES | IC50
1 | Cc1ccc2c(c1C)CNCC2c1ccccc1 (centres undefined) | 8.23 µM
2 | CC[C@H](c1nc2cc(Cl)ccc2c(=O)n1Cc1ccccc1)N(CCCN(C)C)C(=O)c1ccc(Br)cc1 | 0.012 µM
3 | CC(C)(O)C1C[C@@H](O)[C@]2(C)[C@H](CC[C@@]3(C)[C@H]2CC[C@H]2Cc4c([nH]c5ccccc45)[C@@]23C)O1 (some centres undefined) | 15 µM
4 | NCCCCCN1C(=O)[C@@H]2Cc3c([nH]c4ccccc34)[C@@H](c3cccc(O)c3)N2C1=O | 0.09 µM
5 | CCNCCN1CCN(CCCN2c3ccccc3Sc3ccc(C(F)(F)F)cc32)CC1 | 6.6 µM
6 | Cc1cc2c(C(C)C)c(O)c(O)c(C=O)c2c(O)c1-c1c(C)cc2c(C(C)C)c(O)c(O)c(C=O)c2c1O [GOSSYPOL] | 25 µM

Further compounds by falling IC50, results first:

Row | IC50 | SMILES
7 | 145 µM | Oc1cccc2ccc(SSc3ccc4cccc(O)c4n3)nc12
8 | 27 µM | Oc1cccc(C(c2cc(Cl)c(O)c(Cl)c2)C(c2cc(Cl)c(O)c(Cl)c2)c2cc(Cl)c(O)c(Cl)c2)c1Cl (centres undefined)
9 | 22 µM | O=C(O)c1cc2c(cc1S(=O)(=O)O)C1C(C3C2C2(Cl)C(Cl)=C(Cl)C3(Cl)C2(Cl)Cl)C2(Cl)C(Cl)=C(Cl)C1(Cl)C2(Cl)Cl (centres undefined)
10 | 9.7 µM | CN1Cc2c(ccc3c2CCO3)[C@@H](c2ccccc2)C1
11 | 5.6 µM | OC1CC2CCC(C1)N2CCCN1c2ccccc2Sc2ccc(Cl)cc21 (centres undefined)
12 | 0.8 µM | CCCCN1C(=O)[C@@H]2Cc3c([nH]c4ccccc34)[C@@H](c3cccc(O)c3)N2C1=O
13 | 0.28 µM | Cc1ccc(C(=O)N(CCCN)Cc2nc3cc(Cl)ccc3c(=O)n2Cc2ccccc2)cc1
14 | 0.026 µM | CC(=O)N1N=C(c2cc(F)ccc2F)C[C@H]1c1ccccc1
